In US20060093597A1, “Methods of treating involuntary facial spasms and facial wrinkles” (priority 2002, published 2006):
Where two headings read alike, the source gives them in different places.

Key:
[1] = tested on: Botox-induced symptoms; format: in vivo, mouse; conditions: for reading of Botox-induced muscle weakness after topical DAP: n=7
[2] = tested on: neuromuscular blockade; conditions: effective-dose comparison with PMB; cited from earlier work
[3] = tested on: various bacteria; conditions: cited from earlier work
[4] = tested on: mice; conditions: effective-dose comparison with PMB; cited from earlier work
[5] = tested on: rat mast cells; conditions: cited from earlier work
[6] = tested on: eukaryotic cytotoxicity; conditions: cited from earlier work
[7] = in vivo; cited from earlier work

With `Nc1ccncc1N` [DAP, 3,4-diaminopyridine] the “reading of Botox-induced muscle weakness after topical DAP” value ([1]; at 1 hour) was 1.5, the “reading of Botox-induced muscle weakness after topical DAP” value ([1]; at 4 hour) was 0.75 and the “reading later in the experiment” value ([1]; mouse, in vivo) was “the reading went up”. For the same compound, the “response to topical administration” value ([1]; mouse, in vivo) was “rapid response”.

In the case of Polymyxin B nonapeptide [PMBN], the “fold less active than PMB in causing neuromuscular blockade” value [2] is given as 150 times, the “MIC compared to parent molecule PMB” value [3] is given as “increased up to thousand folds” and the “fold less toxic than PMB, acute toxicity” value [4] is given as 15 times. For the same compound, the “fold less active than PMB in releasing histamine” value [5] was 25 time, the “fold less toxic than PMB, cytotoxicity” value [6] was 100 times and the half-life [7] was “approximately 25 minutes”.
